Here are results for 21 compounds from ChEMBL document CHEMBL5120854, “Discovery of Natural Ursane-type SENP1 Inhibitors and the Platinum Resistance Reversal Activity Against Human Ovarian Cancer Cells: A Structure-Activity Relationship Study” (J Nat Prod, 2022).

Assay [1] has as its system SK-OV-3. As to the kind of experiment: Cytotoxicity against human SK-OV-3 cells assessed as reduction in cell viability incubated for 48 hrs by SRB assay. Type of assay: functional, cell-based. The note with it: SK-OV-3, 48 h. Background: The SRB assay estimates cell density from bound dye.
Assay [2] concerns SK-OV-3. In words: Reversal of platinum resistance in cisplatin-resistant human SK-OV-3 cells assessed as reduction in cisplatin IC50 after 48 hrs in presence of cisplatin by SRB assay (reference value: 28.23 microM). Type of assay: functional, cell-based. The note with it: SK-OV-3, 48 h.
Assay [3] concerns the target T1, Sentrin-specific protease 1 (Homo sapiens) (UniProt Q9P0U3).
T1 sequence (whole entry): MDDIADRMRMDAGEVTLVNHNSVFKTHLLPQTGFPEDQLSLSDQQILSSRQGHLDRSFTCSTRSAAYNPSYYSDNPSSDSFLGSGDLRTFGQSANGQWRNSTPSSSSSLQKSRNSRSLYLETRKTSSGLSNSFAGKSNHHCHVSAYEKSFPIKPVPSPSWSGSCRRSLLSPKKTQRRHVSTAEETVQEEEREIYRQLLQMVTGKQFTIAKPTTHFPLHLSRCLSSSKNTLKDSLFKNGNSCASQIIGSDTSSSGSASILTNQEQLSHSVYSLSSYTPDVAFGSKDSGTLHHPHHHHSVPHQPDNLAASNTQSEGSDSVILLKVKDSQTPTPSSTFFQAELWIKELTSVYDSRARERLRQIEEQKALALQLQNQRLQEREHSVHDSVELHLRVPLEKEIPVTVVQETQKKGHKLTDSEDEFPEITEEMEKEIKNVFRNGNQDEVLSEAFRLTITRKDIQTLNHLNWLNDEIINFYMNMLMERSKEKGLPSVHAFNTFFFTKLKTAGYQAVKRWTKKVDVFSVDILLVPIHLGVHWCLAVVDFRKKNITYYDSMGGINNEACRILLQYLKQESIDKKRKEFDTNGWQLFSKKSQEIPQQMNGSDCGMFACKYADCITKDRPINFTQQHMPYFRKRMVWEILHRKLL
In words: Inhibition of recombinant human SENP1 assessed as reduction in deSUMOylation of RanGAP1-SUMO1 at 5 uM using RanGAP1-SUMO1 as substrate preincubated for 10 mins followed by substrate addition and measured after 30 mins relative to control. Particulars: time 40.0 min.

Assay [4] deals with T1, Sentrin-specific protease 1 (Homo sapiens). In words: (§1) Inhibition of recombinant human SENP1 assessed as reduction in deSUMOylation using RanGAP1-SUMO1 as substrate preincubated for 10 mins followed by substrate addition and measured after 30 mins. Particulars: time 40.0 min, DDE = dose-dependent effect.
The target of assay [5] is T2, Sentrin-specific protease 1 (Homo sapiens, UniProt Q9P0U3).
T2 sequence (Q9P0U3 whole entry): T1 sequence (whole entry)
The description is as §1.

In assay [6] the target is T1, Sentrin-specific protease 1 (Homo sapiens). In words: Inhibition of SENP1 in human SK-OV-3 cells assessed as increase in SUMOlytated JAK2 level at 5 uM after 48 hrs by immunoprecipitation method. Type of assay: cell-based.
The subject of assay [7] is SK-OV-3. As to the kind of experiment: Cytotoxicity against human SK-OV-3 cells assessed as cell viability at 500 uM incubated for 48 hrs by SRB assay. Particulars: read-out: Activity. Type of assay: functional.
Assay [8] concerns SK-OV-3. In words: Synergistic reversal of platinum resistance in cisplatin-resistant human SK-OV-3 cells assessed as combination index after 48 hrs in presence of cisplatin by SRB assay. Type of assay: functional.
Assay [9] concerns SK-OV-3. As to the kind of experiment: Cytotoxicity against human SK-OV-3 cells assessed as reduction in cell viability at 25 uM incubated for 48 hrs by SRB assay. Type of assay: functional, cell-based.

The source made the active and inactive calls. The calls are words filed in the database; no cut-off is given here.

A word on the IC50: it is the concentration that gives 50% inhibition. Consider `CC1(C)CC[C@]2(C(=O)O)[C@H](O)C[C@]3(C)C(=CC[C@@H]4[C@@]5(C)CC[C@H](O)C(C)(C)[C@@H]5CC[C@]43C)[C@@H]2C1`, for which the half-inhibitory concentration (IC50) stood at 96.5 µM in assay [1] and 21.5 µM in assay [2]. In general, inhibition refers to the share of the control response that was lost under treatment. With `C[C@@H]1CC[C@]2(C(=O)O)CC[C@]3(C)C(=CC[C@@H]4[C@@]5(C)CC[C@@H](O)[C@](C)(CO)[C@@H]5CC[C@]43C)[C@@H]2[C@]1(C)O`, the inhibition in assay [3] worked out at 19.9%.

For the compound `C[C@@H]1CC[C@]2(C(=O)O)CC[C@]3(C)C(=CC[C@@H]4[C@@]5(C)CC[C@H](O)[C@@](C)(CO)[C@@H]5[C@H](O)C[C@]43C)[C@@H]2[C@]1(C)O`, the inhibition in assay [3] was 0.5%. Take `C[C@@H]1CC[C@]2(C(=O)O)CC[C@]3(C)C(=CC[C@@H]4[C@@]5(C)C[C@H](O)[C@H](O)C(C)(C)[C@@H]5CC[C@]43C)[C@@H]2[C@]1(C)O`: the inhibition in [3] came to 1.7%. The same measure, in the same setting: next, `C[C@H]1[C@H](C)CC[C@]2(C)CC[C@]3(C)C(=CC[C@@H]4[C@@]5(C)CC[C@@H](O)[C@](C)(C(=O)O)[C@@H]5CC[C@]43C)[C@H]12`: 3.9%; `C[C@@H]1CC[C@]2(C(=O)O)CC[C@]3(C)C(=CC[C@@H]4[C@@]5(C)[C@H](O)[C@@H](O)[C@H](O)C(C)(C)[C@@H]5CC[C@]43C)[C@@H]2[C@]1(C)O`: 78.4%; `C[C@@H]1[C@H]2C3=CC[C@@H]4[C@@]5(C)CC[C@@H](O)C(C)(C)[C@@H]5CC[C@@]4(C)[C@]3(C)CC[C@@]2(C)[C@@H](O)C[C@H]1C(=O)O`: 65.5%. Still for that read-out and setting: next, `C[C@@H]1CC[C@]2(C(=O)O)CC[C@]3(C)C(=CC[C@@H]4[C@@]5(C)C=C(O)C(=O)C(C)(C)[C@@H]5CC[C@]43C)[C@@H]2[C@]1(C)O`: 6%; `C[C@H]1[C@H](C)CC[C@]2(C(=O)O)CC[C@]3(C)C(=CC[C@@H]4[C@@]5(C)C[C@@H](O)[C@H](O)[C@@](C)(CO)[C@@H]5CC[C@]43C)[C@H]12`: 6.6%. As for `C[C@@H]1CC[C@]2(C(=O)O)CC[C@]3(C)C(=CC[C@@H]4[C@@]5(C)CC[C@H](O)C(C)(C)[C@@H]5CC[C@]43C)[C@@H]2[C@]1(C)O` [POMOLIC ACID], the figures for the inhibition in assay [3] and in assay [4] were over 100% and “Dde”, respectively. Further, the values for the IC50 in assay [5], in assay [1] and in assay [2] were 5.1 µM, 51.6 µM and 3.69 µM, respectively. In addition, the inhibition result in assay [6] is “Active”. Besides, the viability at 500 µM in [7] is over 25%. Moreover, the CI in assay [8] is 0.23. Take `C[C@@H]1CC[C@]2(C(=O)O)CC[C@]3(C)C(=CC[C@@H]4[C@@]5(C)[C@H](O)C(=O)[C@H](O)C(C)(C)[C@@H]5CC[C@]43C)[C@@H]2[C@]1(C)O`: the inhibition in assay [3] is 1.9%. Still for that read-out and setting: next, `C[C@H]1[C@H](C)CC[C@]2(C(=O)O)CC[C@]3(C)C(=CC[C@@H]4[C@@]5(C)CC[C@@H](O)C(C)(C)[C@@H]5CC[C@]43C)[C@H]12`: 8.4%; `C[C@@H]1CC[C@]2(C(=O)O)CC[C@]3(C)C(=CC[C@@H]4[C@@]5(C)C[C@@H](O)[C@@H](O)C(C)(C)[C@@H]5CC[C@]43C)[C@@H]2[C@]1(C)O`: 66.6%; `C[C@H]1[C@H](C)CC[C@]2(CO)CC[C@]3(C)C(=CC[C@@H]4[C@@]5(C)CC[C@H](O)C(C)(C)[C@@H]5CC[C@]43C)[C@H]12`: 58.4%.

With `C[C@H]1[C@H](C)CC[C@]2(C(=O)O)CC[C@]3(C)C(=CC[C@@H]4[C@@]5(C)C[C@@H](O)[C@H](O)C(C)(C)[C@@H]5CC[C@]43C)[C@H]12` [COROSOLIC ACID], the inhibition in [3] was found to be 34.4%. Besides, the result in assay [9] was Active. Besides, the figures for the concentration for half-maximal inhibition (IC50) in assay [1] and in assay [2] were 10.5 µM and 26.4 µM, respectively. Turning to `C=C(C)[C@@H]1CC[C@]2(C)[C@H](CC=C3[C@@H]4[C@@H](C)[C@H](C)CC[C@]4(C)CC[C@]32C)[C@@]1(C)CCC(=O)O`, the inhibition in [3] amounted to 5.5%. Still for that read-out and setting: next, `C[C@H]1[C@H](C)CC[C@]2(C)CC[C@]3(C)C(=CC(=O)[C@@H]4[C@@]5(C)CC[C@@H](O)[C@](C)(C(=O)O)[C@@H]5CC[C@]43C)[C@H]12`: 8.9%.

In the case of `C[C@@H]1CC[C@]2(C(=O)O)CC[C@]3(C)C(=CC[C@@H]4[C@@]5(C)C[C@@H](O)[C@H](O)C(C)(C)[C@@H]5CC[C@]43C)[C@@H]2[C@]1(C)O` [TOMENTIC ACID], the figures for the inhibition in [3] and in assay [4] were over 100% and “Dde”, respectively. The IC50 is 4.3 µM in assay [5], 23.2 µM in assay [1] and 2.4 µM in assay [2]. For the same compound, the inhibition entry in assay [6] was “Active”. The viability at 500 µM in [7] is over 25%. The CI in [8] came out at 0.3. For the compound `C[C@H]1[C@H](C)CC[C@]2(C(=O)O)CC[C@]3(C)C(=CC[C@@H]4[C@@]5(C)CC[C@H](O)C(C)(C)[C@@H]5CC[C@]43C)[C@H]12`, the inhibition in assay [3] is 87.6%. On the same count and under the same terms, next, `C[C@@H]1[C@H]2C3=CC[C@@H]4[C@@]5(C)CC[C@H](O)C(C)(C)[C@@H]5CC[C@@]4(C)[C@]3(C)CC[C@@]2(C)CC[C@H]1C(=O)O`: 69.2%; `C[C@@H]1CC[C@]2(C(=O)O)CC[C@]3(C)C(=CC[C@@H]4[C@@]5(C)CC[C@H](O)C(C)(C)[C@@H]5[C@H](O)C[C@]43C)[C@@H]2[C@]1(C)O`: 3.2%.
